What was measured:
[1] = molecular target: T1, 5-HT1A (Homo sapiens, UniProt P08908); test: Off-target activity at 5-HT1A; type: binding; settings: off-target site; read-out: 5-HT1A inhibition constant Ki
T1 sequence (P08908 1-422): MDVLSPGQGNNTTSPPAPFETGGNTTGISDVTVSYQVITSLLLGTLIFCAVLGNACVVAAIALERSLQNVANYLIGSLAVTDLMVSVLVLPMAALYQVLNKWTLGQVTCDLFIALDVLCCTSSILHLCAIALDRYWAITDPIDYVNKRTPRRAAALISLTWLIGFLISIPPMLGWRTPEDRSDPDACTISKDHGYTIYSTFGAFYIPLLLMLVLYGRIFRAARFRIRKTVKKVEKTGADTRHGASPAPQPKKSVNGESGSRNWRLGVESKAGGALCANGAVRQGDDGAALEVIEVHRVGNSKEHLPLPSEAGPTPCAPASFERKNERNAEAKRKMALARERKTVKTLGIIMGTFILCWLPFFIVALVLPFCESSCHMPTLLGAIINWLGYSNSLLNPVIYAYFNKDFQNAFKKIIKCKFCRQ

[2] = molecular target: T2, adrenergic α1A receptor (Homo sapiens, UniProt P35348); test: Off-target activity at adrenergic α1A receptor; type: binding; settings: off-target site
T2 sequence (P35348 1-466): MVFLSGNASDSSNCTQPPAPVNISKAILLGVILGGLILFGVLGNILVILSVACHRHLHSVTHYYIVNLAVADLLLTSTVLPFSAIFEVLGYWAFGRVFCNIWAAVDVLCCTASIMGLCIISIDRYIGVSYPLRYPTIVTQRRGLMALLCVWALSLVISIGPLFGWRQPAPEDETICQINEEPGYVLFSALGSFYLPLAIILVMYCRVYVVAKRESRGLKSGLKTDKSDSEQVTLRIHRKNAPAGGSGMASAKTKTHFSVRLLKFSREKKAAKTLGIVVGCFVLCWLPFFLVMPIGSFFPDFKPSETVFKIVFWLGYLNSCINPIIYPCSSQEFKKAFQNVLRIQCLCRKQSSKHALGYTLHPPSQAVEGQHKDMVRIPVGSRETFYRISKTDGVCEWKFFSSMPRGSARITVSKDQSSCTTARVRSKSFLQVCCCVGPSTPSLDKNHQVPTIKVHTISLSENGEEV

[3] = molecular target: T3, adrenergic α1B receptor (Homo sapiens, UniProt P35368); test: Off-target activity at adrenergic α1B receptor; type: binding; settings: off-target site
T3 sequence (P35368 1-520): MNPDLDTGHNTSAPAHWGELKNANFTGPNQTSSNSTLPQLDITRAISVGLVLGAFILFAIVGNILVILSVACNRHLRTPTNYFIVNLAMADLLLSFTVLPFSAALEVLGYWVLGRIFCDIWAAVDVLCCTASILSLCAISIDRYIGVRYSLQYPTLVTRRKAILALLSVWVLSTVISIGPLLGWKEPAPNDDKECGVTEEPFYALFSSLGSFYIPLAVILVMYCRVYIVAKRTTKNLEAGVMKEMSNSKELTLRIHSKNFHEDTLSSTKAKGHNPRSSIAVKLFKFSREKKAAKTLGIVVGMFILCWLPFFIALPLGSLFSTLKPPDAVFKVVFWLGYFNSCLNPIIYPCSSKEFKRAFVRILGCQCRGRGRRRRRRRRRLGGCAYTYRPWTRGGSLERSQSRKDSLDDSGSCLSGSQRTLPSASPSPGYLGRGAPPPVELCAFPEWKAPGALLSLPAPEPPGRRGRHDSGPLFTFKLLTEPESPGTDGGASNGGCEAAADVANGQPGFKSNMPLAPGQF

[4] = molecular target: T4, adrenergic α1D receptor (Homo sapiens, UniProt P25100); test: Off-target activity at adrenergic α1D receptor; type: binding; settings: off-target site
T4 sequence (P25100 1-572): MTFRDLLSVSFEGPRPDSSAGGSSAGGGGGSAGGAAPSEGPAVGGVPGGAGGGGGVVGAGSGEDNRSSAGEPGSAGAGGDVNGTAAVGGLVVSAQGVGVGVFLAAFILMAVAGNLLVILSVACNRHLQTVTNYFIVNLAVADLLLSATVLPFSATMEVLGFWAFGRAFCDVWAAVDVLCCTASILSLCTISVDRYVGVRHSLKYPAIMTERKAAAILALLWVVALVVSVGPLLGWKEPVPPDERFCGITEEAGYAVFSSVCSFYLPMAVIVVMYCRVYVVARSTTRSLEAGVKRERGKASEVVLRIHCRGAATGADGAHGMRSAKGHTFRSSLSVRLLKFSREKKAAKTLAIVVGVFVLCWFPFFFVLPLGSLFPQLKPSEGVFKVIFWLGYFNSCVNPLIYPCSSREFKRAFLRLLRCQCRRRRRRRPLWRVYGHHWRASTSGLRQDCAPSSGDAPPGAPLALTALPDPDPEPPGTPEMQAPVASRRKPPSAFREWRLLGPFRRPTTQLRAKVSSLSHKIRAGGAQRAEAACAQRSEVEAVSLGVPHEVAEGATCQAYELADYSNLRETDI

[5] = molecular target: SERT (Homo sapiens, UniProt P31645); test: Competition binding, membranes from HEK cells overexpressing SERT; parameters: expressed in transfected cells; host or cells: HEK cells (membranes); settings: radioligand at Kd concentration; HEK cell membranes; read-out: SERT binding IC50
Sequence of SERT (P31645 whole entry): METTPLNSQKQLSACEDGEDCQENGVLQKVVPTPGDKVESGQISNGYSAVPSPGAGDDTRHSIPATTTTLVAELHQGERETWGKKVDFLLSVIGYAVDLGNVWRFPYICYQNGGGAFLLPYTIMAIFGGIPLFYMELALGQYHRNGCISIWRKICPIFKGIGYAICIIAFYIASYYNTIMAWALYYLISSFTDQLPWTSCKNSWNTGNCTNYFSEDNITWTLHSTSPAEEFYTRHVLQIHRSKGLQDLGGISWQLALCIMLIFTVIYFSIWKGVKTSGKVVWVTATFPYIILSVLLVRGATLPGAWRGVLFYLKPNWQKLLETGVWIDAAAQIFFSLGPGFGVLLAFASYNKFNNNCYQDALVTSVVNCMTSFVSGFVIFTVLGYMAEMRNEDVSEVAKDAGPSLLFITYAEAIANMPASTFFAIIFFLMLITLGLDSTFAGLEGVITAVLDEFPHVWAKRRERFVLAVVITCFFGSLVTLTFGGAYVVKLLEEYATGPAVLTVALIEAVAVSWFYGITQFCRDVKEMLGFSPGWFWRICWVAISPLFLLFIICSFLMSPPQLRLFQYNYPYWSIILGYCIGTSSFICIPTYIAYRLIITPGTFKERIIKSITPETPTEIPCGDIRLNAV
Procedure: (§1) Competition binding experiments were performed to determine the in vitro binding potencies (IC50 values) of Compound 1-(4S) for SERT, DAT, and NET. Membranes prepared from human embryonic kidney (HEK) cells overexpressing each transporter were employed. Radioligands were used at their respective affinity constant (Kd) concentrations for each transporter to enable direct comparisons of the IC50 values between assays.

[6] = molecular target: DAT (Homo sapiens, UniProt Q01959); test: Competition binding, membranes from HEK cells overexpressing DAT; parameters: expressed in transfected cells; host or cells: HEK cells (membranes); settings: radioligand at Kd concentration; HEK cell membranes
Sequence of DAT (Q01959 whole entry): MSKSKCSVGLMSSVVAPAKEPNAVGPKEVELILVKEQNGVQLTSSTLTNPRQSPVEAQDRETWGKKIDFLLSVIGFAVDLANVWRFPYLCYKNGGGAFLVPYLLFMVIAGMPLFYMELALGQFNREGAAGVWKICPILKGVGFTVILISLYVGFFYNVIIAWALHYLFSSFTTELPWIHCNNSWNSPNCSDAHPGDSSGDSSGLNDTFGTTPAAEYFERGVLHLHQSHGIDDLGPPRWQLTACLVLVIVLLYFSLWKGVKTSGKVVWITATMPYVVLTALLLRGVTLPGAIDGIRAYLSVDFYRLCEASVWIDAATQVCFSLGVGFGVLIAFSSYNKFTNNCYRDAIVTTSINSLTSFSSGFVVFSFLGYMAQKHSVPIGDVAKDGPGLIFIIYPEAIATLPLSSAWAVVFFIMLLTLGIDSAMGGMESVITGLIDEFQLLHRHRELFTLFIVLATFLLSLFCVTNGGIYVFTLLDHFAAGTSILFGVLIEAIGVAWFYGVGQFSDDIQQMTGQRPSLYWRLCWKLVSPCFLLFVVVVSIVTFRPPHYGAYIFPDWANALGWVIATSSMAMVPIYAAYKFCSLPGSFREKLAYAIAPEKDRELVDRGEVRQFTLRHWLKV
Procedure: as §1

[7] = molecular target: NET (Homo sapiens, UniProt P23975); test: Competition binding, membranes from HEK cells overexpressing NET; parameters: expressed in transfected cells; host or cells: HEK cells (membranes); settings: radioligand at Kd concentration; HEK cell membranes
Sequence of NET (P23975 whole entry): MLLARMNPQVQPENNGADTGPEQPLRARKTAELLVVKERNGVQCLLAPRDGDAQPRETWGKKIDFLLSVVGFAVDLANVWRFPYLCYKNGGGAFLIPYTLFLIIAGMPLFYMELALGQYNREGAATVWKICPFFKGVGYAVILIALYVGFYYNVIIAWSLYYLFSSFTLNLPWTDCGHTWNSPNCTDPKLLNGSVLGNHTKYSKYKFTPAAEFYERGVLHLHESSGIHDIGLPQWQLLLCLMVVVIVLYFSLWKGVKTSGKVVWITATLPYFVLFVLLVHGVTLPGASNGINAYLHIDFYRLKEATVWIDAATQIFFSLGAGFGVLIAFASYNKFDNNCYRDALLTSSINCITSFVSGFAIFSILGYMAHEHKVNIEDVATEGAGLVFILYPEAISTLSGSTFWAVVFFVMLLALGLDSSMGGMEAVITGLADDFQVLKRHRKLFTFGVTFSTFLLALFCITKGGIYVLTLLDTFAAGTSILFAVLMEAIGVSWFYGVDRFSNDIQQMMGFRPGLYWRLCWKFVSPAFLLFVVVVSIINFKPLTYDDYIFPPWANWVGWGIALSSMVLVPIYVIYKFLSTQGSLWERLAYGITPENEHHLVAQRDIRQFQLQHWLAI
Procedure: as §1

Ki [1]: 99 nM
Ki [2]: 410 nM
Ki [3]: 260 nM
Ki [4]: 480 nM
IC50 [5]: 0.21 ± 0.04 nM
IC50 [6]: 6.19 ± 1 nM
IC50 [7]: 26.7 ± 3 nM
SMILES: Nc1ccc(-c2ccc3c(c2)CNC[C@H]3c2ccc3ccccc3c2)nn1 [Compound 31]

From patent US20160022675A1, “PROCESSES FOR PREPARING TETRAHYDROISOQUINOLINES” (BRISTOL-MYERS SQUIBB COMPANY, priority 2013, published 2016)
